Experimental data published in patent US9309276B2, “Synthetic lipid A derivative” (University of Georgia Research Foundation, Inc., priority 2007, dated 2016).
Where two headings read alike, the source gives them in different places.

Legend:
Assay type in all cases: cell-based
RAW 264.7 γNO(−) cells = assay: Cytokine induction and ELISAs in mouse macrophages (RAW 264.7 γNO(−) cells); settings: for EC50: Example II, ELISA, best-fit value; for EC50 / TNF-α and IFN-β production, dose response (in words): supernatant, 5.5 h; for TNF-α and IFN-β production, dose response (in words): wide range of concentrations
Method: Mouse macrophages (RAW 264.7 γNO(−) cells) were exposed over a wide range of concentrations to compounds 1-5 and E. coli 055:B5 LPS. After 5.5 hours, the supernatants were harvested and examined for mouse TNF-α and IFN-β using a commercial and in-house developed capture ELISA assay, respectively. Potencies (EC50, concentration producing 50% activity) and efficacies (maximal level of production) were determined by fitting the dose-response curves to a logistic equation using PRISM software. […] It has also been shown that removal of the KDO moieties by mild acidic treatment reduces cellular responses (Demchenko et al., J. Am. Chem. Soc. 2003, 125, 6103-6112).
Having established the EC50 values of TNF-α and IFN-β secretion by compounds 1-5 and E. coli 055:B5 LPS, attention was focused on IL-6, IP-10, RANTES, and IL-1β responses. Thus, the previously harvested supernatants were analyzed for these cytokines using capture ELISA assays (FIG. 4, Table 1). For IL-6, IP-10, and RANTES, a short incubation time of 5.5 hrs was sufficient for detection. To achieve significant IL-1β secretion, the incubation had to be extended to 24 hrs. […] IL-1β is expressed as a pro-protein (pro-IL-1β), which is cleaved by caspase-1 into its active form (IL-1β), which is then secreted. Indeed, analyzing IL-1β of the cell lysates by Western blotting confirmed that it was present as a pro-protein (data not shown). TNF-α is also produced as a pro-protein, which is proteolitically cleaved by tumor necrosis factor-α converting enzyme (TACE) (Skotnicki and Levin, Annu. Rep. Med. Chem. 2003, 38, 153-162; Duffy et al., Thromb. Haemost. 2003, 89, 622-631). […] Furthermore, for each of the synthetic compounds and LPS, EC50 values of secreted TNF-α and intracellular pro-IL-1β were very similar. However, EC50 values for secreted mature IL-1β were larger by as much as 100-fold.
RAW 264.7 γNO(−) cells were plated on the day of the exposure assay as 2×10^5 cells/well in 96-well tissue culture plates (Nunc). Cells were incubated with different stimuli for 5.5 and 24 hours in replicates of five. Culture supernatants were then collected, pooled, and stored frozen (−80° C.) until assayed for cytokine production. After removal of the supernatant, cells were lysed by adding PBS containing Tween 20 (0.01%) and BSA (1%) in the same volume as that of the supernatant and sonicating for 5 min. The cell lysates were pooled and stored frozen (−80° C.) until assayed for cytokine production.
All cytokine ELISAs were performed in 96-well MaxiSorp plates (Nunc). Cytokine DuoSet ELISA Development Kits (R&D Systems) were used for the cytokine quantification of mouse TNF-α, IL-6, IP-10, RANTES, and IL-1β according to the manufacturer's instructions. The absorbance was measured at 450 nm with wavelength correction set to 540 nm using a microplate reader (BMG Labtech). Concentrations of IFN-β in culture supernatants were determined as follows. ELISA MaxiSorp plates were coated with rabbit polyclonal antibody against mouse IFN-β (PBL Biomedical Laboratories). IFN-β in standards and samples was allowed to bind to the immobilized antibody. Rat anti-mouse IFN-β antibody (USBiological) was then added, producing an antibody-antigen-antibody “sandwich”. Next, horseradish peroxidase (HRP) conjugated goat anti-rat IgG (H+L) antibody (Pierce) and a chromogenic substrate for HRP 3,3′,5,5′-tetramethylbenzidine (TMB; Pierce) were added. After the reaction was stopped, the absorbance was measured at 450 nm with wavelength correction set to 540 nm. All cytokine values are presented as the means±SD of triplicate measurements, with each experiment being repeated three times.
Concentration-response data were analyzed using nonlinear least-squares curve fitting in Prism (GraphPad Software, Inc.). […] The Hillslope was set at 1 to be able to compare the EC50 values of the different inducers. […]

human TLR2 = target: T1, human TLR2 (Homo sapiens, UniProt O60603); assay: NF-κB activation in HEK 293T cells stably transfected with human TLR2; settings: 103/104 at 0.1, 1 and 10 μg mL−1; Pam3CysSK4 1 μg mL−1; 4 h
T1 construct: host or cells: HEK 293T
T1 sequence (O60603 21-784): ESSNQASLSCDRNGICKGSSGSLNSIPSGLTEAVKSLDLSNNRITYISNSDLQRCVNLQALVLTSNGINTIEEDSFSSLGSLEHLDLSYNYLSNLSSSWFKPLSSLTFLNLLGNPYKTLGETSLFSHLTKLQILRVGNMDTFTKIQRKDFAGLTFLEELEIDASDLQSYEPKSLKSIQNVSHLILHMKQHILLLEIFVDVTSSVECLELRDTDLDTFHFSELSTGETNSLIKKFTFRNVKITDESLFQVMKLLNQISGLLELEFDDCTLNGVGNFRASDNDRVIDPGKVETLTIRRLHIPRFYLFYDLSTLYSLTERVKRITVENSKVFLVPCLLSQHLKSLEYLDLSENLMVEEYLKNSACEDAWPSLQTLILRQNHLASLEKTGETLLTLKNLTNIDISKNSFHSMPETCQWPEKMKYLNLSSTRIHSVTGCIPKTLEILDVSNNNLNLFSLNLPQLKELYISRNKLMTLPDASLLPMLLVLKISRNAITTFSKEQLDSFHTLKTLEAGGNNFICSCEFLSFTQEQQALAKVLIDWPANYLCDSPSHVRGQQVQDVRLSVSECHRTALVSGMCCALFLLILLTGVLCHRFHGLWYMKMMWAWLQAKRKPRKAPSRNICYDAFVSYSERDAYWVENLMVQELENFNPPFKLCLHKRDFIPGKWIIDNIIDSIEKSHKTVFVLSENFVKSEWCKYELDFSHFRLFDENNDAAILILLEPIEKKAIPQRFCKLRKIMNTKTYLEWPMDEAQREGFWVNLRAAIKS
Method: (§1) Induction of NF-κB activation was determined in triplicate cultures of HEK 293T cells stably transfected with human or mouse (a) TLR4/MD2/CD14 and (b) TLR2 and transiently transfected with pELAM-Luc and pRL-TK plasmids. Forty-four h post-transfection, cells were treated with (B) E. coli LPS (10 ng mL^−1), (C) Pam3CysSK4 (1 μg mL^−1), (D, E and F) 103 (0.1, 1 and 10 μg mL^−1, respectively), (G, H and I) 104 (0.1, 1 and 10 μg mL^−1, respectively) or (A) were left untreated (control). Forty-eight h post-transfection, NF-κB activation was determined by firefly luciferase activity relative to Renilla luciferase activity. n.a. indicates not analyzed.
(§2) To examine the ability of the synthetic compounds to induce activation of NF-κB, HEK 293T cells were employed that were stably transfected with various immune receptors and transiently transfected with a plasmid containing the reporter gene pELAM-Luc (NF-κB-dependent firefly luciferase reporter vector) and a plasmid containing the control gene pRL-TK (Renilla luciferase control reporter vector) (FIG. 11). […] Although compound 104 is a weak activator of mouse TLR4, it could not induce the secretion of cytokines.
(§3) The day before transfection, HEK 293T wild type cells and HEK 293T cells stably transfected with human and murine TLR4/MD2/CD14 and human and murine TLR2 were plated in 96-well tissue culture plates (16,000 cells/well). The next day, cells were transiently transfected using PolyFect Transfection Reagent (Qiagen) with expression plasmids pELAM-Luc (NF-κB-dependent firefly luciferase reporter plasmid, 50 ng/well) (Chow et al., J. Biol. Chem., 1999, 274, 10689-10692) and pRL-TK (Renilla luciferase control reporter vector, 1 ng/well; Promega) as an internal control to normalize experimental variations. […] The luciferase activity was measured using the Dual-Luciferase Reporter Assay System (Promega) according to the manufacturer's instructions and a combination luminometer/fluorometer microplate reader (BMG Labtech). […]

mouse TLR2 = target: T2, mouse TLR2 (Mus musculus, UniProt Q9QUN7); assay: NF-κB activation in HEK 293T cells stably transfected with mouse TLR2; settings: 103/104 at 0.1, 1 and 10 μg mL−1; Pam3CysSK4 1 μg mL−1; 4 h
T2 construct: host or cells: HEK 293T
T2 sequence (Q9QUN7 25-784): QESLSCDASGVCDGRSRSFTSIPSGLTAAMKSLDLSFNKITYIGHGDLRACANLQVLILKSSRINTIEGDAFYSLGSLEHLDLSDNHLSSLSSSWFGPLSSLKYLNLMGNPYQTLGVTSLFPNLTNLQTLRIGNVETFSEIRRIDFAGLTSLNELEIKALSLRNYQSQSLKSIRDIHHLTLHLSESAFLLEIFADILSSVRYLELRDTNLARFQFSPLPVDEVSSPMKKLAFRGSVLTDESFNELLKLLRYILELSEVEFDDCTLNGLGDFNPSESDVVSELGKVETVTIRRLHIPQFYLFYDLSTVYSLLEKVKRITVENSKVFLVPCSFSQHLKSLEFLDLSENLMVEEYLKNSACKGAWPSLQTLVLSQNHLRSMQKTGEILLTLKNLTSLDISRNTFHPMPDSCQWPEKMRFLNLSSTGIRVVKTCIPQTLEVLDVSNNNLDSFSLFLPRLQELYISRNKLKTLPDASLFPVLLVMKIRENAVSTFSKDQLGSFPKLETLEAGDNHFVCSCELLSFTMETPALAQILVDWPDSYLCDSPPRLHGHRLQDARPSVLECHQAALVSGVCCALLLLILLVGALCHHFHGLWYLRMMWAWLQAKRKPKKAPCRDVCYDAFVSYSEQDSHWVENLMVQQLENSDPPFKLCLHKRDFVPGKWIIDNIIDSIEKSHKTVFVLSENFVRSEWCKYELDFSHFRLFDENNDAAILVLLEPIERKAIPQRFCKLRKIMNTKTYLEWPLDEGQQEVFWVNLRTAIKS
Method: as §1, §2, §3

[1] = at the highest concentration tested

| Compound | EC50 (RAW 264.7 γNO(−) cells; read-out: EC50 IFN-β) [nM] | EC50 (RAW 264.7 γNO(−) cells; read-out: EC50 TNF-α) [nM] | TNF-α and IFN-β production, dose response (in words) (RAW 264.7 γNO(−) cells) | also measured |
| --- | --- | --- | --- | --- |
| 3-O—[(R)-3-Hydroxy-dodecanoyl]-2-deoxy-2-[(R)-3-dodecanoyloxy-tetradecanoylamino]-(R)-D-glucopyranosyl-(1→6)-2-[(R)-3-hydroxy-dodecanoylamino]-3-O—[(R)-3-dodecanoyloxy-dodecanoyl]-2-deoxy-α-D-glucopyranoside 1,4′-bisphosphate [lipid A 51] | 4 | 1.5 | – | – |
| CCCCCCCCCCCCCCCC(=O)O[C@H](CCCCCCCCCCC)CC(=O)N[C@H]1[C@@H](OP(=O)(O)O)O[C@H](CO[C@@H]2O[C@H](CO)[C@@H](OP(=O)(O)O)[C@H](OC(=O)C[C@@H](CCCCCCCCCCC)OC(=O)CCCCCCCCCCCCC)[C@H]2NC(=O)C[C@@H](CCCCCCCCCCC)OC(=O)CCCCCCCCCCC)[C@@H](O)[C@@H]1OC(=O)C[C@H](O)CCCCCCCCCCC [Lipid A 3, 6-O-{2-Deoxy-2-[(R)-3-dodecanoyloxy-tetradecanoylamino]-3-O—[(R)-3-tetradecanoyloxy-tetradecanoyl]-β-D-glucopyranosyl}-2-deoxy-2-[(R)-3-hexadecanoyl-tetradecanoylamino]-3-O—[(R)-3-hydroxy-tetradecanoyl]-α-D-glucopyranose 1,4′-bisphosphate] | – | – | only a partial response at the highest concentration tested | formation of IL-6, RANTES, and IL-1β (RAW 264.7 γNO(−) cells; [1]): no formation; production of TNF-α, IFN-β, and IP-10 (RAW 264.7 γNO(−) cells; [1]): induced the production |
| CCCCCCCCCCCCCCCC(=O)O[C@H](CCCCCCCCCCC)CC(=O)N[C@@H]1[C@@H](OC(=O)C[C@H](O)CCCCCCCCC)[C@H](O)[C@@H](CO[C@@H]2O[C@H](CO)[C@@H](O)[C@H](OC(=O)C[C@@H](CCCCCCCCC)OC(=O)CCCCCCCCCCC)[C@H]2NC(=O)C[C@@H](CCCCCCCCCCC)OC(=O)CCCCCCCCCCC)O[C@@H]1O [Lipid A 5, 6-O-{2-Deoxy-3-O—[(R)-3-dodecanoyloxy-dodecanoyl]-2-[(R)-3-dodecanoyloxy-tetradecanoylamino]-β-D-glucopyranosyl}-2-deoxy-2-[(R)-3-hexadecanoyloxy-tetredecanoylamino]-3-O—[(R)-3-hydroxy-dodecanoyl]-α-D-glucopyranose] | – | – | inactive | – |
| (3-Deoxy-α-D-manno-oct-2-ulopyranosyl)onate-(2->6)-3-O—[(R)-3-hydroxy-dodecanoyl]-2-deoxy-2-[(R)-3-dodecanoyloxy-tetradecanoyl]-(R)-D-glucopyranosyl-(1→6)-3-O—[(R)-3-hydroxy-dodecanoyl]-2-deoxy-2-[(R)-3-dodecanoyloxy-tetradecanoyl]-α-D-glucopyranose 1,4′-biphosphate [lipid A 53] | 0.2 | 0.092 | – | – |
| Pam3CysSK4 [reference compound] | – | – | – | NF-κB activation, human TLR2 (human TLR2): able to activate; NF-κB activation, mouse TLR2 (mouse TLR2): able to activate |
